Publication PMC10314905, “Architecture of a complete Bce-type antimicrobial peptide resistance module” (Nature Communications, 2023)
Values belong to the molecule of their own block, whether it stands above or below them.

Columns and labels:
[1] = biological target: T1, BceAB (isolated transporter) (Bacillus subtilis, UniProt O34697); details: MgCl2, 37 °C, 30 min, detergent solubilized
T1 construct: gene bceA

BceAB-S complex [2] = biological target: T2, BceAB-S complex (Bacillus subtilis, UniProt O34697); set-up: gene bceA; details: MgCl2, 37 °C, 30 min, detergent solubilized
T2 sequence (O34697 whole entry, one chain of several): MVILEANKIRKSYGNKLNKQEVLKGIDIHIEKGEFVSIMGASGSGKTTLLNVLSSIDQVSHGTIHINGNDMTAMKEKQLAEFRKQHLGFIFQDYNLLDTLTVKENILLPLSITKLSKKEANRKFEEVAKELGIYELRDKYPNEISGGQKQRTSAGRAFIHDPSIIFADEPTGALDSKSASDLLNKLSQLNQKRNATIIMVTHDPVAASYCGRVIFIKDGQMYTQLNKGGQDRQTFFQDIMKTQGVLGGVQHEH

BceAB-S complex [3] = biological target: T2, BceAB-S complex; test: cryo-EM structure of the complex; format: binding; set-up: gene bceA; full-length; petDUET-1, E. coli C41(DE3); LMNG-solubilized; BceA:B:S 2:1:2; with Bacitracin export permease protein BceB; Sensor protein BceS; details: 5 mM ATPγS, 5 mM MgCl2, LMNG; bound at Walker A motif and Tyr13 of BceA
[4] = biological target: the molecule itself; test: cryo-EM structure; BceAB-S, co-expressed and co-purified complex in LMNG, incubated on ice with 5 mM ATPγS and 5 mM MgCl2 for 30 min before freezing
[5] = biological target: T3, BceAB ABC transporter (BceA2:BceB1) (B. subtilis, UniProt O34697 2-253; O34741 1-646); test: cryo-EM structure; nucleotide-free BceAB-S, co-expressed and co-purified complex in LMNG at ~7 mg/mL; Titan Krios, K3; details: both partners purified
T3 construct: BceA of Bacillus subtilis, as m1; BceB of Bacillus subtilis, as m2; The construct for isolated BceAB (without BceS) is not described here; also called BceAB transporter; isolated BceAB; source: E. coli C41(DE3), co-expressed (with or without BceS), purified (LMNG, Co3+-Talon, Superdex 200); not shown: His6, N-terminal, kept; copies: 2 + 1
T3 sequence 1: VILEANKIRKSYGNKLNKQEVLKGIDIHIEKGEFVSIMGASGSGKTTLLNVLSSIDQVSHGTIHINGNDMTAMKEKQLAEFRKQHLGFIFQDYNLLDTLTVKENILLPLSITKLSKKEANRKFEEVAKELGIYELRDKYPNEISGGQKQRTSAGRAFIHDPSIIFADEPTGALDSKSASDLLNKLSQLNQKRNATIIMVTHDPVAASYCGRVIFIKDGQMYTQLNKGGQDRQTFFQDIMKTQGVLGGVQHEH
T3 sequence 2: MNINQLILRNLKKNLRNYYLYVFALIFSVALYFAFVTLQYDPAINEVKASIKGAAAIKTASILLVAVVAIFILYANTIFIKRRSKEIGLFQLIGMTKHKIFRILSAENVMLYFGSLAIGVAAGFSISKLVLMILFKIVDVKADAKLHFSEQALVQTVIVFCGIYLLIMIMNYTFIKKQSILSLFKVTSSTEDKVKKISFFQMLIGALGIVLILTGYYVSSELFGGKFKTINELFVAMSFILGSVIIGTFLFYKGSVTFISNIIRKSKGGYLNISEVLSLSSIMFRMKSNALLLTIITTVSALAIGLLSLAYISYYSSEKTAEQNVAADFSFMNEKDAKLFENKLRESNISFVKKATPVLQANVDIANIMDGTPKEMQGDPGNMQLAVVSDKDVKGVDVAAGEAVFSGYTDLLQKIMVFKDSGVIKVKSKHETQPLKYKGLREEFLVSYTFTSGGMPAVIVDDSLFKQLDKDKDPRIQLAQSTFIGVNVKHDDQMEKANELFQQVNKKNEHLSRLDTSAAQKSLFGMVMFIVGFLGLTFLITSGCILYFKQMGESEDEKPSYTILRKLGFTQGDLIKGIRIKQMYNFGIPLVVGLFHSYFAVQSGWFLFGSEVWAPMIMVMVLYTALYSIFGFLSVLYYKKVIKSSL

[6] = biological target: the molecule itself; test: as above

T1 sequence (O34697 whole entry, one chain of several): as the sequence (O34697 whole entry, one chain of several) above

Molecule: Nc1ncnc2c1ncn2[C@@H]1O[C@H](COP(=O)(O)OP(=O)(O)OP(=O)(O)O)[C@@H](O)[C@H]1O [ATP]
colorimetric phosphate-release ATPase assay [1]: significantly reduced maximal ATPase activity compared to the isolated BceAB transporter | colorimetric phosphate-release ATPase assay (BceAB-S complex [2]): The BceAB-S complex displayed significantly reduced maximal ATPase activity

Molecule: Nc1ncnc2c1ncn2[C@@H]1O[C@H](COP(=O)(O)OP(=O)(O)OP(O)(O)=S)[C@@H](O)[C@H]1O [ATPγS]
cryo-EM structure of the complex (BceAB-S complex [3]): ATPγS engages the Walker-A motif and Tyr13 in the A-loop of BceA

B1: BceA, ATPase (nucleotide binding domain) subunit of the ABC transporter BceAB (natural protein, B. subtilis)
chain: VILEANKIRKSYGNKLNKQEVLKGIDIHIEKGEFVSIMGASGSGKTTLLNVLSSIDQVSHGTIHINGNDMTAMKEKQLAEFRKQHLGFIFQDYNLLDTLTVKENILLPLSITKLSKKEANRKFEEVAKELGIYELRDKYPNEISGGQKQRTSAGRAFIHDPSIIFADEPTGALDSKSASDLLNKLSQLNQKRNATIIMVTHDPVAASYCGRVIFIKDGQMYTQLNKGGQDRQTFFQDIMKTQGVLGGVQHEH
notes: BceA of Bacillus subtilis; gene PCR amplified from B. subtilis genomic DNA together with the overlapping bceB gene; Two copies of BceA stand in the BceAB-S complex (BceA:B:S 2:1:2); No cleavage of the His tag is told; also called BceA NBDs; BceA subunits; not shown: His6, N-terminal, kept
binding result [4]: binds

stoichiometry N [5]: 2 BceS per BceAB (BceA2:BceB1)
B2: BceS sensor histidine kinase (natural protein, B. subtilis, UniProt O35044 1-334, looked up)
chain: MIKAFLIERRSWIAAFLFQQALMLFIAFVDPSISFGNVLYMVYLCILFFIIFLWFRYRKETAFYKSLKTWENNLDVTAINEPETPFEAMVERSIAGQTEHLKQTAARHRLALENEKDELMAWIHEVKTPLTAMHLIIDRMEEKALKSQLSYEWLRIHLLLDQQLHQKRISFIENDLSVEFIQLQPLIFKEIKDLQSWCIQKGIGFDIQLEAKEVLSDAKWLAFIIRQLLTNAVKYSEASEIEIKSFQKGEQTQLQVKDCGRGIDPKDVPRIFDKGFTSTTDHHDQASTGMGLYLAKKAAAPLLIHIDVESEFGAGTVFTLTFPIRNQFEHVISV
notes: BceS of Bacillus subtilis; gene PCR amplified from B. subtilis genomic DNA; Dimer in the BceAB-S complex; also called BceS kinase; BceS dimer
stoichiometry N [6]: 2
